Experimental data as given in article PMC10221159, “Investigation of N-Acetyltransferase 2-Mediated Drug Interactions of Amifampridine: In Vitro and In Vivo Evidence of Drug Interactions with Acetaminophen” (Pharmaceutics, 2023).
Like-named read-outs stand apart in the source and are kept apart here. Values belong to the compound of their own block, whether it stands above or below them.

Tests used:
[1] = Tissue distribution of amifampridine and 3-N-acetylamifampridine in rats; format: in vivo, rat; conditions: rat, 60 min after oral amifampridine 2 mg/kg
Protocol: To investigate the effects of acetaminophen on the tissue distribution of amifampridine and 3-N-acetylamifampridine, rats were sacrificed at 60 min after administration of amifampridine in control and acetaminophen-treated rats (n = 6) as mentioned above, and the tissues, including liver, kidney, heart, lungs, spleen, brain, and muscle tissues, were obtained. Tissue samples were homogenized using a Wheaton^TM Dounce tissue grinder (Wheaton Millipore, Billerica, MA, USA) after adding a three-fold volume of PBS. An amount of 100 μL of tissue homogenates was transferred to the tube and 200 μL of IS solution was then added and vortexed followed by centrifugation at 14,000 rpm for 15 min at 4 °C. The supernatants were transferred to LC vials for quantification. For muscle samples, the supernatant was concentrated using a desiccator and reconstituted with the mobile phase solvent.

[2] = humans, cited from earlier work
[3] = In vivo pharmacokinetic interaction study in rats (plasma); design: species or system rat; conditions: for AUC(0-inf) / AUC(0-t) / Cmax / MRT / Tmax / half-life / CL renal: male, Sprague-Dawley, rat, po, 2 mg/kg, oral amifampridine 2 mg/kg; for AUC(0-inf) / AUC(0-t) / Cmax / MRT / Tmax / half-life: plasma; for CL renal: urine and plasma, renal clearance
Protocol: Male Sprague Dawley (SD) rats (7–8 weeks old, 260–330 g) were purchased from Orient Bio, Inc. (Seongnam, Korea). The rats were housed under a light/dark cycle for 12 h and were left for at least a week before the experiment to adapt to the laboratory environment. Water and food were provided ad libitum. The rats were fasted overnight with free access to water prior to pharmacokinetic studies. The protocols for animal experiments were approved in accordance with the Guidelines for Animal Care and Use of Gachon University (approval no.: GIACUC-R2021006; 13 May 2021).
The rats were anesthetized with a mixture of Rompun and Zoletil by intramuscular injection and received an intraperitoneal injection of vehicle (40:60 PEG400:normal saline; n = 8) or 100 mg/kg acetaminophen (n = 8). After 10 min, 2 mg/kg amifampridine (dissolved in saline) was administered orally. Blood samples were collected at 0, 5, 15, 30, 60, 90, 120, 240, and 360 min and centrifuged at 14,000 rpm for 15 min at 4 °C. For analysis of amifampridine and 3-N-acetylamifampridine, 50 μL of plasma samples was mixed with 100 μL IS solution (5 ng/mL ondansetron in acetonitrile) and the mixture was vortexed followed by centrifugation at 14,000 rpm for 15 min at 4 °C. For the analysis of acetaminophen, 200 μL of IS (tolbutamide 200 ng/mL in methanol) was added to the plasma samples which were diluted 10-fold using the blank plasma and then vortexed for one minute. Further, the samples were centrifuged at 14,000 rpm for 15 min at 4 °C. The supernatants were transferred to LC vials for quantification.
Non-compartment analysis (NCA) was performed to calculate the pharmacokinetic parameters for the in vivo study using WinNonlin (Version 8.3. (Pharsight Corporation, Mountain View, CA, USA)). The area under the plasma concentration–time curve from time 0 to infinity (AUCinf) was calculated by the linear trapezoidal method and standard extrapolation using λ, where λ represents the slope of the terminal phase in a semi-log graph for plasma concentration–time profiles. Renal clearance (CLr) was determined by dividing the accumulated amount of drug excreted in the urine by AUCinf.

[4] = design: method as in earlier work; conditions: metabolite of amifampridine; cited from earlier work
[5] = Urinary excretion of amifampridine and 3-N-acetylamifampridine in rats; format: in vivo, rat; conditions: for amount excreted into the urine for up to 4 h: oral amifampridine 2 mg/kg
Protocol: Urine samples were collected at intervals of 0–4, 4–8, and 8–24 h after the administration of amifampridine to control and acetaminophen-treated rats (n = 6), as described above, and were diluted 500-fold with potassium phosphate buffer. An amount of 200 μL of IS was then added to the samples and vortexed for a minute. After centrifugation at 14,000 rpm for 15 min at 4 °C, the supernatant was transferred into vials for quantification of amifampridine and 3-N-acetylamifampridine.

NAT2 [6] = biological target: T1, NAT2 (Homo sapiens, UniProt P11245); experiment: Inhibition of amifampridine acetylation to 3-N-acetylamifampridine by NAT2 inhibitors, human liver S9 fraction; format: biochemical; conditions: amifampridine 50 μM, 15 min
T1 construct: in vitro using S9 fractions obtained from human, rat, and mouse livers; from tissue; host or cells: human liver S9 fraction
T1 sequence (P11245 1-290): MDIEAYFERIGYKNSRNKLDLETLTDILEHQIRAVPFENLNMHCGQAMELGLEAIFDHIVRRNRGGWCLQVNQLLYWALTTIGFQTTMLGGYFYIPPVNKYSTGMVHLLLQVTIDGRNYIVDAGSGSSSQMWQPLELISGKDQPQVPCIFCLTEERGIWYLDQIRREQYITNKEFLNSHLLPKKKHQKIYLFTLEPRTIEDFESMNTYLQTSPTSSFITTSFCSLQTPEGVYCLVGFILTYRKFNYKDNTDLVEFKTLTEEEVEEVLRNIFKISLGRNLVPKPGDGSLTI
Protocol: Then, the NAT2 inhibitors (final concentrations of 0, 1, 5, 10, 50, 100, 500, 1000, and 5000 μM) and amifampridine (final concentration of 50 μM) were added to the reaction mixture and incubated for 15 min at 37 °C. An amount of 50 μL of the mixture was then transferred into the tube and mixed with 100 μL of IS (5 ng/mL ondansetron in acetonitrile). The mixture was vortexed and centrifuged at 14,000 rpm for 15 min at 4 °C. The supernatant was transferred into vials for HPLC-MS/MS analysis and the concentration of 3-N-acetylamifampridine was determined.

NAT2 [7] = conditions: previous report; cited from earlier work
[8] = acetaminophen-treated group (100 mg/kg ip)

Kp at 1 h ([1]; Sprague Dawley, brain, acetaminophen 100 mg/kg, read-out: Tissue partition coefficient (Kp), Brain): 0.2 ± 0.2 | Kp at 1 h ([1]; Sprague Dawley, brain, control, read-out: Tissue partition coefficient (Kp), Brain): 0.2 ± 0.2 | Kp at 1 h ([1]; Sprague Dawley, heart, acetaminophen 100 mg/kg, read-out: Tissue partition coefficient (Kp), Heart): 1.6 ± 0.4 | Kp at 1 h ([1]; Sprague Dawley, heart, control, read-out: Tissue partition coefficient (Kp), Heart): 1.8 ± 0.5 | Kp at 1 h ([1]; Sprague Dawley, lungs, acetaminophen 100 mg/kg, read-out: Tissue partition coefficient (Kp), Lungs): 2.7 ± 0.9 | Kp at 1 h ([1]; Sprague Dawley, lungs, control, read-out: Tissue partition coefficient (Kp), Lungs): 2.9 ± 0.5 | Kp at 1 h ([1]; Sprague Dawley, spleen, acetaminophen 100 mg/kg, read-out: Tissue partition coefficient (Kp), Spleen): 3 ± 0.9 | Kp at 1 h ([1]; Sprague Dawley, spleen, control, read-out: Tissue partition coefficient (Kp), Spleen): 3.3 ± 0.7 | Kp at 1 h ([1]; male, Sprague-Dawley, kidney, acetaminophen 100 mg/kg, read-out: Tissue partition coefficient (Kp), Kidney): 5.1 ± 1.6 | Kp at 1 h ([1]; male, Sprague-Dawley, kidney, control, read-out: Tissue partition coefficient (Kp), Kidney): 16.6 ± 12.4 | Kp at 1 h ([1]; male, Sprague-Dawley, liver, acetaminophen 100 mg/kg, read-out: Tissue partition coefficient (Kp), Liver): 3 ± 0.8 | Kp at 1 h ([1]; male, Sprague-Dawley, liver, control, read-out: Tissue partition coefficient (Kp), Liver): 6.5 ± 5 | Kp at 1 h ([1]; male, Sprague-Dawley, muscle, acetaminophen 100 mg/kg, read-out: Tissue partition coefficient (Kp), Muscle): 0.9 ± 0.3 | Kp at 1 h ([1]; male, Sprague-Dawley, muscle, control, read-out: Tissue partition coefficient (Kp), Muscle): 0.9 ± 0.2 | change of AUCinf after pre-treatment with acetaminophen ([3]; acetaminophen-treated vs control rats): not significantly altered | decrease in Cmax ([3]; after pre-treatment with acetaminophen vs control, p < 0.05): 27.11% | decrease of AUCm/AUCp ([3]; after pretreatment with acetaminophen): 65% | AUC(0-inf) [3, 8]: 3690 ng·h/mL | AUC(0-t) [3, 8]: 3010 ng·h/mL | Cmax [3, 8]: 880 ± 260 ng/mL | MRT [3, 8]: 3.84 h | Tmax [3, 8]: 1.5 h | half-life [3, 8]: 2.38 ± 0.91 h | AUC(0-inf) ([3]; control group): 3690 ng·h/mL | AUC(0-t) ([3]; control group): 3410 ng·h/mL | Cmax ([3]; control group): 1210 ± 240 ng/mL | MRT ([3]; control group): 2.65 h | Tmax ([3]; control group): 1.31 h | half-life ([3]; control group): 1.42 ± 0.36 h | CL renal [3, 8]: 3.58 ± 0.6 mL/min | CL renal ([3]; control group): 2.94 ± 1.55 mL/min | total amount excreted via urine for up to 24 h, difference between groups ([5]; control vs acetaminophen-treated rats): not significantly different | amount excreted into the urine for up to 4 h ([5]; after pre-treatment with acetaminophen): 12.2% | amount excreted into the urine for up to 4 h ([5]; control rats): 49.9%
Compound: CC(=O)Nc1cnccc1N [3-N-acetylamifampridine]
dose excreted via the urine within 24 h ([2]; after administration of amifampridine): 74.0–81.7% | elimination half-life [2]: ~4 h | pharmacological activity [4]: pharmacologically inactive

IC50 (NAT2 [6]): 844 ± 160 µM
Compound: COc1cc(C(C)=O)ccc1O [apocynin]
IC50 (NAT2 [7]): 690 µM

IC50 (NAT2 [6]): 2450 ± 258 µM
Compound: CN/C(=N/CCSCc1nc[nH]c1C)NC#N [cimetidine]
IC50 (NAT2 [7]): 2060 µM
